Patent US8853394B2, “Pharmacokinetically improved compounds” (Surface Logix, Inc., priority 2006, dated 2014)
Values after ≈ are worked out from the molar mass of the structure shown. Read-outs that look alike come from different tables or passages of the source.

Assays:
[1] = test system: PDE-3; assay: PDE-3 inhibition; assay type: biochemical
[2] = target: PDE5 (Homo sapiens, UniProt O76074); assay: PDE-5 human inhibition; assay type: biochemical
[3] = Non-Spec Binding; assay type: in vitro ADME
[4] = target: T1, PDE-6 bovine (Bos taurus, UniProt P11541+P23439); assay: PDE-6 bovine inhibition; assay type: biochemical
T1 sequence (P11541 2-856 limits assumed): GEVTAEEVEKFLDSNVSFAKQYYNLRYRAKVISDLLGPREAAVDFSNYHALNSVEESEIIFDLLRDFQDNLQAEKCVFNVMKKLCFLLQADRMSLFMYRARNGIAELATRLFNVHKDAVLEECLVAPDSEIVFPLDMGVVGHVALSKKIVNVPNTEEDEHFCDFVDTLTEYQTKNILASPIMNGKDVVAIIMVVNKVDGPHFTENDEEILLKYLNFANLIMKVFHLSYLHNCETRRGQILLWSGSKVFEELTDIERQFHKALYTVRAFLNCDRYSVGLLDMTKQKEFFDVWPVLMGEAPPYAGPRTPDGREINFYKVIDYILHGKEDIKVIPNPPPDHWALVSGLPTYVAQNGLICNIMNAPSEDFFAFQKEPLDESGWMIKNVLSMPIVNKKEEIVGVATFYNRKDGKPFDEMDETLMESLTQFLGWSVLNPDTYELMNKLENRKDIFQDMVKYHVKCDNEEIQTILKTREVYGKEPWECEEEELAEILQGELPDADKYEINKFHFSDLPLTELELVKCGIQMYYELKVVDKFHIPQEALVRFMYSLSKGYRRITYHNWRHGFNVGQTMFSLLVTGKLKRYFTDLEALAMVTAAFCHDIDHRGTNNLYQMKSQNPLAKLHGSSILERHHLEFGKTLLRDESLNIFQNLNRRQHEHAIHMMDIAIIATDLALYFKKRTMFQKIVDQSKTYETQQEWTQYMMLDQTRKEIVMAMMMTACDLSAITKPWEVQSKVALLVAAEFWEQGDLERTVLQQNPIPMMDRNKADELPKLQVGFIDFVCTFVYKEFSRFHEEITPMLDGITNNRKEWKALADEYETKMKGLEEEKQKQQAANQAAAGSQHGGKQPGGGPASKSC
T1 sequence (P23439 2-850 limits assumed): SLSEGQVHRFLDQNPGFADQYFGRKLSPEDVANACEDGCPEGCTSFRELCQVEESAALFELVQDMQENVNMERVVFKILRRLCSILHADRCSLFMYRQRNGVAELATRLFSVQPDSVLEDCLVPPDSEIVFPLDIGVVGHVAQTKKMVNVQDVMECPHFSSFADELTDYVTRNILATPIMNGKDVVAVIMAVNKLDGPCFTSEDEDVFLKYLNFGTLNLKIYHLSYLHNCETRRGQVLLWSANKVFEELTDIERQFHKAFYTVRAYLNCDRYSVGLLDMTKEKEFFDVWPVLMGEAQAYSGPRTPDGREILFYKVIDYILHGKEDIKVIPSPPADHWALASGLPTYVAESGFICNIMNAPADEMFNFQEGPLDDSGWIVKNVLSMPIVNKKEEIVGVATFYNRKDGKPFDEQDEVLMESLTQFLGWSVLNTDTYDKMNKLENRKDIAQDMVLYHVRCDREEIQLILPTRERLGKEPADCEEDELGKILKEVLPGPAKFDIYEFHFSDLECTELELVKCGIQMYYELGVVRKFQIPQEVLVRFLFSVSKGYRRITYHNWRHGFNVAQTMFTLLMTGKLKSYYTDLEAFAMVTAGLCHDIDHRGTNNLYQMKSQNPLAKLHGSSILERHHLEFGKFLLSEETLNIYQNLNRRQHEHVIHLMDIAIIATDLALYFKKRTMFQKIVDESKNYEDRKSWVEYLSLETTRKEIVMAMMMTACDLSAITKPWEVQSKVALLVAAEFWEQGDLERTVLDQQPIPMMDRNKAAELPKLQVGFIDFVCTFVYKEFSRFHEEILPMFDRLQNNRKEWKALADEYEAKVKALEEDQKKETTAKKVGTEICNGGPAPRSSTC

[5] = PAMPA permeability; assay type: in vitro ADME
[6] = Protein Binding; assay type: in vitro ADME; details: human, human serum components
Method: In general, protein binding is assessed by measuring the capacity of molecules of the invention to bind to one or more human serum components or mimics thereof. In one embodiment, suitable functional residues may be identified by screening of surfaces comprising such residues for their ability to resist adsorption of serum components, including, but not limited to serum proteins, and preferably human serum proteins. Candidate residues can be screened directly by attaching them to a solid support and testing the support for protein resistance. Alternatively, candidate residues are incorporated into, or linked to molecules of pharmaceutical interest. Such compounds may be synthesized on a solid support, or bound to a solid support after synthesis. In a non-limiting example of a direct binding assay, immobilized candidate functional residues or molecules incorporating such residues are tested for their ability to bind serum components. The serum components can be labeled with a signaling moiety for detection, or a labeled secondary reagent that binds to such serum components can be used.
A direct binding analysis can also be preformed in liquid phase. For example, test compounds can be mixed with one or more serum components in liquid phase, and the unbound molecules determined.

[7] = Caco-2 permeability; assay type: in vitro ADME; details: human; for Papp A→B: AtoB; for Papp B→A: BtoA
Text: Several model systems are available, employing monolayers of various cell types, for evaluation of active transport of pharmaceutically active substances. For example, monolayers of Caco-2 intestinal epithelial cells can be used to evaluate active transport of substances between the intestine and the bloodstream. When plated on a surface which allows the flow of material from apical to basolateral and vice versa, such cells form a biological membrane which can be used to simulate physiological absorption and bioavailability. In another example, mouse brain capillary endothelial cell (MBEC) lines have been established to evaluate active transport in and out of the central nervous system. Another example of such cells is HT29 human colon carcinoma cells. Further, monolayers expressing particular transporter proteins can be established using transfected cells. For example, Sasaki et al (2002) J. Biol. Chem. 8:6497 used a double-transfected Madin-Darby canine kidney cell monolayer to study transport of organic anions.

[8] = test system: PDE-1; assay: PDE-1 inhibition; assay type: biochemical
[9] = Chronic Cytoxicity (mouse 3T3); assay type: cell-based; details: 3T3 cells
[10] = Solubility; assay type: physicochemical
[11] = test system: PDE-4 human; assay: PDE-4 human inhibition; assay type: biochemical
[12] = T1/2 in human liver microsomes; assay type: in vitro ADME
[13] = T1/2 in rat liver microsomes; assay type: in vitro ADME
[14] = pH 2.7, aqueous buffer, read-out: Solubility (ug/mL) pH 2.7
[15] = pH 7.4, aqueous buffer, read-out: Solubility (ug/mL) pH 7.4

Compound | IC50 [1] | IC50 [2] | Non-Spec Binding (%) [3] | IC50 [4] | Papp ([5]; Hex, read-out: PAMPA Hex) | fraction unbound [6] | Papp A→B [7] | Papp B→A [7] | IC50 [8] | Papp ([5]; Lec, read-out: PAMPA Lec) | solubility [10, 14] | solubility [10, 15] | IC50 [11] | half-life [12] | half-life [13] | GI50 [9] | LC50 (50% lethal concentration) [9]
CCCc1nc(C)c2c(=O)[nH]c(-c3cc(S(=O)(=O)N(C)C)ccc3OCC)nn12 [Compound 8] | 1200 nM | 1 nM | 44.2% | 5 nM | 68.9 ×10⁻⁶ cm/s | 0.024 | 45.4 ×10⁻⁶ cm/s | 47.4 ×10⁻⁶ cm/s | 31 nM | – | – | – | – | – | – | – | –
CCCc1nc(C)c2c(=O)[nH]c(-c3cc(S(=O)(=O)N(C)CCNC)ccc3OCC)nn12 [Compound 2] | 1930 nM | 0.646 nM | – | 16.3 nM | 1.17 ×10⁻⁶ cm/s | – | 1.48 ×10⁻⁶ cm/s | 9.88 ×10⁻⁶ cm/s | 82 nM | 1.47 ×10⁻⁶ cm/s | > 50 µg/mL | > 50 µg/mL | – | – | – | > 75000 nM | > 75000 nM
CCCc1nc(C)c2c(=O)[nH]c(-c3cc(S(=O)(=O)N4CCC[C@H]4CN4CCCC4)ccc3OCC)nn12.Cl [Compound 11] | 2100 nM | 1 nM | – | 23 nM | 3.86 ×10⁻⁶ cm/s | – | 6.87 ×10⁻⁶ cm/s | 30.5 ×10⁻⁶ cm/s | 48 nM | – | > 50 µg/mL | > 50 µg/mL | – | – | – | 25000 nM | > 100000 nM
CCCc1nc(C)c2c(=O)[nH]c(-c3cc(S(=O)(=O)N4CCN(C(=O)C5CCCO5)CC4)ccc3OCC)nn12 (stereo not drawn) [Compound 19] | 1200 nM | 0.056 nM | 15.5% | 0.685 nM | – | 0.104 | 7.86 ×10⁻⁶ cm/s | 44.8 ×10⁻⁶ cm/s | 2.55 nM | – | – | – | 686 nM | 22.4 min | 24 min | – | –
CCCc1nc(C)c2c(=O)[nH]c(-c3cc(S(=O)(=O)N(C)C[C@H](COC)OC)ccc3OCC)nn12 [Compound 7] | 784 nM | 0.356 nM | 25.5% | 2.9 nM | 76.1 ×10⁻⁶ cm/s | 0.018 | 48.6 ×10⁻⁶ cm/s | 57.4 ×10⁻⁶ cm/s | 14.7 nM | – | – | – | – | – | – | – | –
CCCc1nc(C)c2c(=O)[nH]c(-c3cc(S(=O)(=O)N(C)C(C)(C)C)ccc3OCC)nn12 [Compound 3] | 323 nM | 0.107 nM | – | 3.74 nM | 53.9 ×10⁻⁶ cm/s | – | 50.8 ×10⁻⁶ cm/s | 50.4 ×10⁻⁶ cm/s | 11.9 nM | – | 90.2 µg/mL (≈ 195 µM) | 15 µg/mL (≈ 32.5 µM) | – | – | – | > 50000 nM | > 100000 nM
CCCc1nc(C)c2c(=O)[nH]c(-c3cc(S(=O)(=O)N(CCO)CCO)ccc3OCC)nn12 [Compound 6] | 1500 nM | 0.52 nM | – | 17 nM | ~0.08 ×10⁻⁶ cm/s | – | 4.3 ×10⁻⁶ cm/s | 28.1 ×10⁻⁶ cm/s | 26 nM | – | – | – | – | – | – | – | –
CCCc1nc(C)c2c(=O)[nH]c(-c3cc(S(=O)(=O)NCCO)ccc3OCC)nn12 [Compound 4] | 2030 nM | 1.08 nM | – | 5.63 nM | ~0.0062 ×10⁻⁶ cm/s | – | – | – | 18.7 nM | 0.0019 ×10⁻⁶ cm/s | – | – | – | – | – | ~50000 nM | > 100000 nM
CCCc1nc(C)c2c(=O)[nH]c(-c3cc(S(=O)(=O)N(C)CC(=O)N(C)OC)ccc3OCC)nn12 [Compound 14] | 648 nM | 0.104 nM | 9.9% | 2.9 nM | – | 0.024 | 20.6 ×10⁻⁶ cm/s | 48.8 ×10⁻⁶ cm/s | 12 nM | – | – | – | 1550 nM | – | – | – | –
CCCNS(=O)(=O)c1ccc(OCC)c(-c2nn3c(CCC)nc(C)c3c(=O)[nH]2)c1 [Compound 23] | 3700 nM | 0.19 nM | – | 0.62 nM | – | – | – | – | 15 nM | – | – | – | 2300 nM | – | – | – | –

Further lines, with some results ahead:

IC50 [1] | IC50 [2] | Non-Spec Binding (%) [3] | IC50 [4] | Papp ([5]; Hex, read-out: PAMPA Hex) | fraction unbound [6] | Papp A→B [7] | Papp B→A [7] | IC50 [8] | Papp ([5]; Lec, read-out: PAMPA Lec) | solubility [10, 14] | solubility [10, 15] | IC50 [11] | half-life [12] | half-life [13] | Compound | GI50 [9] | LC50 (50% lethal concentration) [9]
546 nM | 0.34 nM | 89.9% | 2.6 nM | 49 ×10⁻⁶ cm/s | 0.012 | – | – | 12 nM | – | – | – | – | – | – | CCCc1nc(C)c2c(=O)[nH]c(-c3cc(S(=O)(=O)N(CCOCC)CCOCC)ccc3OCC)nn12 [Compound 10] | – | –
391 nM | 0.066 nM | 36.5% | 0.86 nM | – | 0.016 | 40.5 ×10⁻⁶ cm/s | 39.4 ×10⁻⁶ cm/s | 2.6 nM | – | – | – | 1100 nM | 1.08 min | 6.83 min | CCCc1nc(C)c2c(=O)[nH]c(-c3cc(S(=O)(=O)N(C)CC(OC)OC)ccc3OCC)nn12 [Compound 17] | – | –
511 nM | 0.05 nM | 0.8% | 0.92 nM | – | 0.116 | – | – | 18.5 nM | – | – | – | 2950 nM | – | – | CCCc1nc(C)c2c(=O)[nH]c(-c3cc(S(=O)(=O)N4CCN(CC(=O)N5CCOCC5)CC4)ccc3OCC)nn12 [Compound 22] | – | –
1300 nM | 0.1 nM | 0.8% | 0.48 nM | – | 0.025 | 2.2 ×10⁻⁶ cm/s | 5.5 ×10⁻⁶ cm/s | 24 nM | – | – | – | 5000 nM | – | – | CCCc1nc(C)c2c(=O)[nH]c(-c3cc(S(=O)(=O)N(C)CC(=O)O)ccc3OCC)nn12 [Compound 12] | – | –
1170 nM | 0.135 nM | 7.4% | 0.63 nM | – | 0.037 | – | – | 11.5 nM | – | 93.3 µg/mL (≈ 181 µM) | 90.9 µg/mL (≈ 176 µM) | 944 nM | – | – | CCCc1nc(C)c2c(=O)[nH]c(-c3cc(S(=O)(=O)N(C)CCN4CCCC4=O)ccc3OCC)nn12 [Compound 20] | – | –
